Results reported in patent publication US12545640B2, “Substituted 6,7-dihydro-5H-benzo[7]annulene compounds, processes for their preparation and therapeutic uses thereof” (SANOFI, priority 2019, dated 2026).

Target: T1, ERα (Homo sapiens, UniProt P03372)
T1 construct: host or cells: MCF7 cells
T1 sequence (P03372 1-595): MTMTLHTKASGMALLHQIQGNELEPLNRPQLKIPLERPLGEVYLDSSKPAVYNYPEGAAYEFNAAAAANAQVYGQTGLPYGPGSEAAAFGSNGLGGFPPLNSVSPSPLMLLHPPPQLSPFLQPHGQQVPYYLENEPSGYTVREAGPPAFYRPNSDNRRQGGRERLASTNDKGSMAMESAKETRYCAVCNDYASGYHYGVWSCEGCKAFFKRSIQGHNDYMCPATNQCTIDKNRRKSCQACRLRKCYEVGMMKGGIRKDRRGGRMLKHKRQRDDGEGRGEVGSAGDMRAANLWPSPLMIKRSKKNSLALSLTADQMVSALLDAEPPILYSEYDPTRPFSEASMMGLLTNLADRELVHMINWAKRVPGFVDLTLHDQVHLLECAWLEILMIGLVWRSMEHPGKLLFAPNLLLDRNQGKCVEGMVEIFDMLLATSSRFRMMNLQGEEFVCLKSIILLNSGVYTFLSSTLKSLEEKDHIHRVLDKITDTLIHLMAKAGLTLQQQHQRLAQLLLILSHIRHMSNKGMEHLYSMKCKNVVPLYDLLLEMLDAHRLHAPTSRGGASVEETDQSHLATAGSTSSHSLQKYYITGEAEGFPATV
Test: Estrogen receptor degradation activity: breast cancer cell ERα in cell western assay (MCF7 cells)
Format: cell-based
Conditions: 4 hours, final concentrations ranging from 0.3-0.0000018 μM, relative to fulvestrant 0.1 μM positive control
Method: Test: Estrogen Receptor Degradation Activity
Said test involves measuring the in vitro degradation activity of the compounds of the invention.
The measurements of the degradation activities were made using a breast cancer cell ERα in cell western assay as described hereunder.
MCF7 cells (ATCC) were seeded in 384 wells microplate (collagen coated) at a concentration of 10000 cells/30 μL, per well in red phenol free MEM alpha medium (invitrogen) containing 5% charcoal dextran striped FBS. The following day, 9 points serial 1:5 dilution of each compound was added to the cells in 2.5 μL at final concentrations ranging either from 3-0.000018 μM (column «% Degradation at 3 μM in table 2) or from 0.3-0.0000018 μM (column «% Degradation at 0.3 μM in table 2), or 0.1 μM for fulvestrant (using as positive control). At 4 hours post compound addition the cells were fixed by adding 25 μL of formalin (final concentration 5% formalin containing 0.1% triton) for 10 minutes at room temperature and then washed twice with PBS. Then, 50 μL of LI-COR blocking buffer containing 0.1% Triton was added to plate for 30 minutes at room temperature. LI-COR blocking buffer was removed and cells were incubated overnight at cold room with 50 μL anti-ER rabbit monoclonal antibody (Thermo scientific MA1-39540) diluted at 1:1000 in LI-COR blocking buffer containing 0.1% tween-20. Wells which were treated with blocking buffer but no antibody were used as background control. Wells were washed twice with PBS (0.1% tween-20) and incubated at 37° C. for 60 minutes in LI-COR (0.1% tween-20) containing goat anti-rabbit antibody Alexa 488 (1:1000) and Syto-64 a DNA dye ([…]). Cells were then washed 3 times in PBS and scanned in ACUMEN explorer (TTP-Labtech). Integrated intensities in the green fluorescence and red fluorescence were measured to determine the levels of ERα and DNA respectively.

SMILES	% Degradation At 0.3 μM [%]
O=C(Nc1ccc2c(c1)CCCC(c1ccc(Cl)cc1Cl)=C2c1ccc(O[C@H]2CCN(CCCF)C2)cc1)C1(O)CC1.O=CO [Example 84, (S)—N-(8-(2,4-dichlorophenyl)-9-(4-((1-(3-fluoropropyl)pyrrolidin-3-yl)oxy)phenyl)-6,7-dihydro-5H-benzo[7]annulen-3-yl)-1-hydroxycyclopropane-1-carboxamide formate]	71
O=C(NC1COC1)c1ccc2c(c1)CCCC(c1ccc(Cl)cc1Cl)=C2c1ccc(O[C@H]2CCN(CCCF)C2)cc1 [Example 75, (S)-8-(2,4-dichlorophenyl)-9-(4-((1-(3-fluoropropyl)pyrrolidin-3-yl)oxy)phenyl)-N-(oxetan-3-yl)-6,7-dihydro-5H-benzo[7]annulene-3-carboxamide]	71
O=C(Nc1ccc2c(c1)CCCC(c1ccc(Cl)cc1Cl)=C2c1ccc(O[C@H]2CCN(CCCF)C2)cc1)C1(F)CC1 [Example 66, (S)—N-(8-(2,4-dichlorophenyl)-9-(4-((1-(3-fluoropropyl)pyrrolidin-3-yl)oxy)phenyl)-6,7-dihydro-5H-benzo[7]annulen-3-yl)-1-fluorocyclopropane-1-carboxamide]	74

The remaining lines, values ahead:

% Degradation At 0.3 μM [%]	SMILES
64	CC(C)(O)c1cccc(-c2ccc3c(c2)CCCC(c2ccc(Cl)cc2Cl)=C3c2ccc(O[C@H]3CCN(CCCF)C3)cc2)c1 [Example 94, (S)-2-(3-(8-(2,4-dichlorophenyl)-9-(4-((1-(3-fluoropropyl)pyrrolidin-3-yl)oxy)phenyl)-6,7-dihydro-5H-benzo[7]annulen-3-yl)phenyl)propan-2-ol]
90	CC1(C)OB(c2ccc3c(c2)CCCC(c2ccccc2)=C3c2ccc(O[C@H]3CCN(CCCF)C3)cc2)OC1(C)C [Example 91, (S)-1-(3-fluoropropyl)-3-(4-(8-phenyl-3-(4,4,5,5-tetramethyl-1,3,2-dioxaborolan-2-yl)-6,7-dihydro-5H-benzo[7]annulen-9-yl)phenoxy)pyrrolidine]

Same assay, conditions: 4 hours, final concentrations ranging from 3-0.000018 μM, relative to fulvestrant 0.1 μM positive control

SMILES	% Degradation At 3 μM [%]
O=C(O)/C=C/c1ccc2c(c1)CCCC(c1ccc(Cl)cc1Cl)=C2c1ccc(O[C@H]2CCN(CCCF)C2)cc1 [Example 20, (S,E)-3-(8-(2,4-dichlorophenyl)-9-(4-((1-(3-fluoropropyl)pyrrolidin-3-yl)oxy)phenyl)-6,7-dihydro-5H-benzo[7]annulen-3-yl)acrylic acid]	85
CC1(C)OB(c2ccc3c(c2)CCCC(c2ccc(Cl)cc2Cl)=C3c2ccc(O[C@H]3CCN(CCCF)C3)cc2)OC1(C)C [Example 1, (S)-3-(4-(8-(2,4-dichlorophenyl)-3-(4,4,5,5-tetramethyl-1,3,2-dioxaborolan-2-yl)-6,7-dihydro-5H-benzo[7]annulen-9-yl)phenoxy)-1-(3-fluoropropyl)pyrrolidine]	86
NNC(=O)c1ccc2c(c1)CCCC(c1ccc(Cl)cc1Cl)=C2c1ccc(O[C@H]2CCN(CCCF)C2)cc1 [Example 6, (S)-8-(2,4-dichlorophenyl)-9-(4-((1-(3-fluoropropyl)pyrrolidin-3-yl)oxy)phenyl)-6,7-dihydro-5H-benzo[7]annulene-3-carbohydrazide]	88
O=S(=O)(Nc1ccc2c(c1)CCCC(c1ccc(Cl)cc1Cl)=C2c1ccc(O[C@H]2CCN(CCCF)C2)cc1)C(F)(F)F [Example 35, (S)—N-(8-(2,4-dichlorophenyl)-9-(4-((1-(3-fluoropropyl)pyrrolidin-3-yl)oxy)phenyl)-6,7-dihydro-5H-benzo[7]annulen-3-yl)-1,1,1-trifluoromethanesulfonamide]	52
O=c1[nH]nc(-c2ccc3c(c2)CCCC(c2ccc(Cl)cc2Cl)=C3c2ccc(O[C@H]3CCN(CCCF)C3)cc2)o1 [Example 31, (S)-5-(8-(2,4-dichlorophenyl)-9-(4-((1-(3-fluoropropyl)pyrrolidin-3-yl)oxy)phenyl)-6,7-dihydro-5H-benzo[7]annulen-3-yl)-1,3,4-oxadiazol-2(3H)-one]	95
O=c1cc(-c2ccc3c(c2)CCCC(c2ccc(Cl)cc2Cl)=C3c2ccc(O[C@H]3CCN(CCCF)C3)cc2)[nH][nH]1 [Example 12, (S)-5-(8-(2,4-dichlorophenyl)-9-(4-((1-(3-fluoropropyl)pyrrolidin-3-yl)oxy)phenyl)-6,7-dihydro-5H-benzo[7]annulen-3-yl)-1,2-dihydro-3H-pyrazol-3-one]	83
Cl.O=S1NC(c2ccc3c(c2)CCCC(c2ccc(Cl)cc2Cl)=C3c2ccc(O[C@H]3CCN(CCCF)C3)cc2)=NO1 (stereo partly drawn) [Example 29, 4-(8-(2,4-dichlorophenyl)-9-(4-(((S)-1-(3-fluoropropyl)pyrrolidin-3-yl)oxy)phenyl)-6,7-dihydro-5H-benzo[7]annulen-3-yl)-3H-1,2,3,5-oxathiadiazole 2-oxide hydrochloride]	91

The remaining lines, values ahead:

% Degradation At 3 μM [%]	SMILES
96	FCCCN1CC[C@H](Oc2ccc(C3=C(c4ccc(Cl)cc4Cl)CCCc4cc(-c5n[nH]c(=S)o5)ccc43)cc2)C1 [Example 45, (S)-5-(8-(2,4-dichlorophenyl)-9-(4-((1-(3-fluoropropyl)pyrrolidin-3-yl)oxy)phenyl)-6,7-dihydro-5H-benzo[7]annulen-3-yl)-1,3,4-oxadiazole-2(3H)-thione]
73	CC(C)(C)OC(=O)Nc1ccc2c(c1)CCCC(c1ccc(Cl)cc1Cl)=C2c1ccc(O[C@H]2CCN(CCCF)C2)cc1 [Example 32, Tert-butyl (S)-(8-(2,4-dichlorophenyl)-9-(4-((1-(3-fluoropropyl)pyrrolidin-3-yl)oxy)phenyl)-6,7-dihydro-5H-benzo[7]annulen-3-yl)carbamate]
50	CON(C)C(=O)c1ccc2c(c1)CCCC(c1ccc(Cl)cc1Cl)=C2c1ccc(O[C@H]2CCN(CCCF)C2)cc1 [Example 44, (S)-8-(2,4-dichlorophenyl)-9-(4-((1-(3-fluoropropyl)pyrrolidin-3-yl)oxy)phenyl)-N-methoxy-N-methyl-6,7-dihydro-5H-benzo[7]annulene-3-carboxamide]
85	O=C(NO)c1ccc2c(c1)CCCC(c1ccc(Cl)cc1Cl)=C2c1ccc(O[C@H]2CCN(CCCF)C2)cc1 [Example 18, (S)-8-(2,4-dichlorophenyl)-9-(4-((1-(3-fluoropropyl)pyrrolidin-3-yl)oxy)phenyl)-N-hydroxy-6,7-dihydro-5H-benzo[7]annulene-3-carboxamide]
95	O=c1oc(-c2ccc3c(c2)CCCC(c2ccc(Cl)cc2Cl)=C3c2ccc(O[C@H]3CCN(CCCF)C3)cc2)ns1 [Example 33, (S)-5-(8-(2,4-dichlorophenyl)-9-(4-((1-(3-fluoropropyl)pyrrolidin-3-yl)oxy)phenyl)-6,7-dihydro-5H-benzo[7]annulen-3-yl)-1,3,4-oxathiazol-2-one]
86	FCCCN1CC[C@H](Oc2ccc(C3=C(c4ccc(Cl)cc4Cl)CCCc4cc(-c5nn[nH]n5)ccc43)cc2)C1 [Example 16, (S)-5-(8-(2,4-dichlorophenyl)-9-(4-((1-(3-fluoropropyl)pyrrolidin-3-yl)oxy)phenyl)-6,7-dihydro-5H-benzo[7]annulen-3-yl)-2H-tetrazole]
95	NC(=O)c1ccc2c(c1)CCCC(c1ccc(Cl)cc1Cl)=C2c1ccc(O[C@H]2CCN(CCCF)C2)cc1 [Example 3, (S)-8-(2,4-dichlorophenyl)-9-(4-((1-(3-fluoropropyl)pyrrolidin-3-yl)oxy)phenyl)-6,7-dihydro-5H-benzo[7]annulene-3-carboxamide]
91	O=C(NNC(=S)n1ccnc1)c1ccc2c(c1)CCCC(c1ccc(Cl)cc1Cl)=C2c1ccc(O[C@H]2CCN(CCCF)C2)cc1 [Example 59, (S)-8-(2,4-dichlorophenyl)-9-(4-((1-(3-fluoropropyl)pyrrolidin-3-yl)oxy)phenyl)-N′-(1H-imidazole-1-carbonothioyl)-6,7-dihydro-5H-benzo[7]annulene-3-carbohydrazide]
